Data: ChEMBL document CHEMBL1146448, “Cavernosolide, a New Sesterterpene from a Tyrrhenian Sponge” (J Nat Prod, 1997)
Values after ≈ are worked out from the molar mass of the structure shown.

Key:
[1] = Toxicity in Artemia salina; type: organism-based; conditions: in vivo
[2] = Toxicity in Gambusia affinis; type: organism-based; conditions: in vivo

CC(=O)O[C@H]1O[C@@H](C2=CC(=O)O[C@@H]2O)C[C@@H]2[C@@H]1CC[C@H]1[C@@]2(C)CC[C@H]2C(C)(C)CCC[C@]12C [CAVERNOSOLIDE]
LC50 [1]: 0.37 µg/mL (≈ 0.803 µM)
LC50 [2]: 0.75 µg/mL (≈ 1.63 µM)
